Results on 64 molecules are retold here after PubChem BioAssay AID1224921 (Broad Institute, 2016).

Molecules are shown by their SMILES. The source made the active and inactive calls. The rule behind the calls is not given here.

In the experiment the test system is Clostridioides difficile clinical isolate growth, OD600, 24 h. Nature of the experiment: inhibitors of Clostridioides difficile proliferation – 4-point retest, confirmation (AID 1224921).
For orientation: AC50 means the midpoint of the concentration-response curve, whichever way the signal moves. As for `COc1ccc(CN(C)C[C@H]2OCCCC[C@H](C)Oc3ccc(NC(=O)Nc4ccc(C(F)(F)F)cc4)cc3C(=O)N([C@@H](C)CO)C[C@@H]2C)cc1`, the AC50 is 16.6 µM.

Consider `CO[C@@H](CN(C)S(=O)(=O)c1cn(C)cn1)[C@@H](C)CN(C(=O)Nc1ccc(C(F)(F)F)cc1)[C@H](C)CO`, for which the AC50 was 16.5 µM.

As to `O=C(C[C@H]1CC[C@@H]2[C@H](COC[C@H](O)CN2C(=O)Nc2ccc(Cl)c(Cl)c2)O1)NC1CCC1`, the AC50 is 4.46 µM.

For the molecule `CO[C@H]1CN(C)C(=O)c2ccc(NC(=O)c3cccc(F)c3)cc2OC[C@@H](C)N(C(C)=O)C[C@@H]1C`, the AC50 was > 60 µM (inactive).

As to `O=C(C[C@@H]1CC[C@@H]2[C@H](COC[C@@H](O)CN2C(=O)Nc2ccc(Cl)c(Cl)c2)O1)NCc1ccc(Cl)cc1`, the AC50 is 0.98 µM.

Regarding `CO[C@H]1CN(C)C(=O)c2cc(NC(C)=O)ccc2OC[C@@H](C)N(CCc2ccccc2)C[C@H]1C`, the AC50 is > 60 µM (inactive).

As for `O=C(C[C@@H]1CC[C@H]2[C@@H](COC[C@@H](O)CN2C(=O)Nc2cc(Cl)cc(Cl)c2)O1)NCC1CC1`, the AC50 was 16.2 µM.

As for `O=C(C[C@H]1CC[C@H]2[C@@H](COC[C@@H](O)CN2C(=O)Nc2cc(Cl)cc(Cl)c2)O1)NCC1CC1`, the AC50 is 10.9 µM.

Regarding `C[C@H](CO)N1C[C@H](C)[C@H](CN(C)CC2CCCCC2)Oc2ccc(NC(=O)Nc3ccc(C(F)(F)F)cc3)cc2C1=O`, the AC50 is 15.2 µM.

Take `C[C@H](NC(=O)C[C@H]1CC[C@@H]2[C@H](COC[C@H](O)CN2C(=O)Nc2cc(Cl)cc(Cl)c2)O1)c1ccccc1`: the AC50 was 11.5 µM.

`C[C@@H]1CN([C@@H](C)CO)C(=O)c2cc(NS(=O)(=O)c3ccc(Cl)cc3)ccc2O[C@@H](C)CCCCO[C@H]1CN(C)CC1CCCCC1`: the AC50 was 13.1 µM.

Regarding `C[C@@H]1CN([C@H](C)CO)S(=O)(=O)c2ccc(/C=C/c3ccccc3)cc2O[C@H]1CN(C)Cc1ccc(C(=O)O)cc1`, the AC50 was less than 0.5 µM.

Consider `CCCN(C)C[C@H]1OCCCC[C@@H](C)Oc2ccc(NC(=O)Nc3ccc(C(F)(F)F)cc3)cc2C(=O)N([C@@H](C)CO)C[C@H]1C`, for which the AC50 is 10.5 µM.

Regarding `O=C(NCC[C@@H]1CC[C@H](NC(=O)C2CCCCC2)[C@H](CO)O1)Nc1ccc(Cl)cc1`, the AC50 is 30 µM.

With `CO[C@@H]1CN(C)C(=O)c2cc(NC(=O)Nc3ccc(Cl)c(Cl)c3)ccc2OC[C@H](C)NC[C@@H]1C`, the AC50 is 8.13 µM.

Turning to `CCNC(=O)C[C@H]1CC[C@@H]2[C@H](COC[C@H](O)CN2C(=O)Nc2ccc(C(F)(F)F)cc2)O1`, the AC50 is 3.45 µM.

With `O=C(C[C@H]1CC[C@H]2[C@@H](COC[C@H](O)CN2C(=O)Nc2cc(Cl)cc(Cl)c2)O1)N1CCOCC1`, the AC50 was 4.04 µM.

For the molecule `O=C(C[C@H]1CC[C@H]2[C@@H](COC[C@H](O)CN2C(=O)Nc2ccc(Cl)c(Cl)c2)O1)NCc1ccc(F)cc1`, the AC50 was 2.08 µM.

For the molecule `COc1ccc(S(=O)(=O)Nc2ccc3c(c2)C(=O)N([C@@H](C)CO)C[C@H](C)[C@@H](CN(C)Cc2ccc4c(c2)OCO4)OCCCC[C@@H](C)O3)cc1`, the AC50 was 6.68 µM.

Turning to `CNC(=O)C[C@@H]1CC[C@@H]2[C@H](COC[C@@H](O)CN2C(=O)Nc2ccc(Cl)c(Cl)c2)O1`, the AC50 is 2.31 µM.

For the molecule `O=C(C[C@H]1CC[C@@H]2[C@H](COC[C@@H](O)CN2C(=O)Nc2ccc(Cl)c(Cl)c2)O1)NCc1ccncc1`, the AC50 is 4.06 µM.

With `O=C(C[C@@H]1CC[C@@H]2[C@H](COC[C@H](O)CN2C(=O)Nc2ccc(Cl)c(Cl)c2)O1)NCc1ccccc1`, the AC50 was 2.01 µM.

Take `C[C@@H]1CN([C@@H](C)CO)C(=O)c2cc(NC(=O)Nc3ccc(C(F)(F)F)cc3)ccc2O[C@@H](C)CCCCO[C@H]1CN(C)Cc1ccccc1`: the AC50 is 26.9 µM.

`COc1ccc(S(=O)(=O)Nc2cccc3c2O[C@H](CN(C)Cc2ccc(Oc4ccccc4)cc2)[C@H](C)CN([C@@H](C)CO)C3=O)cc1`: the AC50 is 3.67 µM.

As to `O=C(C[C@H]1CC[C@@H]2[C@H](COC[C@@H](O)CN2C(=O)Nc2ccc(Cl)c(Cl)c2)O1)NCc1ccccc1`, the AC50 was 4.01 µM.

`CC(C)CC#Cc1ccc2c(c1)O[C@H](CN(C)Cc1ccc(C(=O)O)cc1)[C@@H](C)CN([C@H](C)CO)S2(=O)=O`: the AC50 is 17.9 µM.

`O=C(C[C@H]1CC[C@H]2[C@@H](COC[C@@H](O)CN2C(=O)Nc2ccc(C(F)(F)F)cc2)O1)NCC1CCCCC1`: the AC50 was 1.27 µM.

On to `COc1ccc(CN(C)C[C@H]2OCCCC[C@@H](C)Oc3ccc(NC(=O)Nc4cccc5ccccc45)cc3C(=O)N([C@@H](C)CO)C[C@@H]2C)cc1`, for which the AC50 is 27.4 µM.

Regarding `C[C@@H]1CN([C@H](C)CO)C(=O)c2cccc(NC(=O)Nc3ccc(C(F)(F)F)cc3)c2O[C@@H]1CN(C)Cc1ccc(-c2ccccc2)cc1`, the AC50 is 18.3 µM.

On to `CNC(=O)C[C@H]1CC[C@@H]2[C@H](COC[C@H](O)CN2C(=O)Nc2ccc(Cl)c(Cl)c2)O1`, for which the AC50 is 4.12 µM.

Take `O=C(C[C@@H]1CC[C@@H]2[C@H](COC[C@H](O)CN2C(=O)Nc2ccc(Cl)c(Cl)c2)O1)NCc1ccc(Cl)c(Cl)c1`: the AC50 is 1.14 µM.

On to `O=C(C[C@H]1CC[C@@H]2[C@H](COC[C@@H](O)CN2C(=O)Nc2ccc(Cl)c(Cl)c2)O1)NCc1ccc(F)cc1`, for which the AC50 is 2.15 µM.

For `O=C(NCC[C@H]1CC[C@@H](NC(=O)C2CC2)[C@H](CO)O1)Nc1ccc(C(F)(F)F)cc1`, the AC50 was 9.05 µM.

`Cc1ccc(S(=O)(=O)N[C@H]2CC[C@@H](CCNC(=O)Nc3ccc(Cl)cc3)O[C@H]2CO)cc1`: the AC50 is 18.2 µM.

On to `O=C(C[C@H]1CC[C@@H]2[C@H](COC[C@H](O)CN2C(=O)Nc2ccc(C(F)(F)F)cc2)O1)NCCc1ccncc1`, for which the AC50 is 3.55 µM.

Regarding `C[C@H](NC(=O)C[C@@H]1CC[C@@H]2[C@H](COC[C@H](O)CN2C(=O)Nc2cccc(Cl)c2)O1)c1ccccc1`, the AC50 was 14.4 µM.

On to `CO[C@H](CN(C)S(=O)(=O)c1cn(C)cn1)[C@H](C)CN(C(=O)Nc1ccc(C(F)(F)F)cc1)[C@@H](C)CO`, for which the AC50 is 7.66 µM.

`O=C(C[C@H]1CC[C@H]2[C@@H](COC[C@H](O)CN2C(=O)Nc2ccc(C(F)(F)F)cc2)O1)NCCc1ccncc1`: the AC50 is 2.37 µM.

Regarding `C[C@H]1CCCCO[C@@H](CN(C)CC2CCCCC2)[C@@H](C)CN([C@@H](C)CO)C(=O)c2cc(NC(=O)Nc3ccc(C(F)(F)F)cc3)ccc2O1`, the concentration at half-maximal activity (AC50) is 17.3 µM.

Regarding `CCCNC(=O)N1[C@@H](C#N)[C@H](c2ccc(C#Cc3ccc(F)cc3)cc2)[C@@H]1CO`, the AC50 is 36.3 µM.

In the case of `CNC(=O)C[C@@H]1CC[C@H]2[C@@H](COC[C@@H](O)CN2C(=O)Nc2ccc(Cl)c(Cl)c2)O1`, the AC50 is 11.9 µM.

On to `C[C@@H]1CN([C@H](C)CO)S(=O)(=O)c2ccc(C#CCC3CCCC3)cc2O[C@@H]1CN(C)C(=O)CN(C)C`, for which the AC50 is 17.6 µM.

In the case of `CN(C)CC(=O)N[C@@H]1CC[C@@H](CCNC(=O)Nc2ccc(C(F)(F)F)cc2)O[C@H]1CO`, the AC50 is 4.63 µM.

For `C[C@H](CO)N1C[C@H](C)[C@@H](CN(C)Cc2ccc(-c3ccccc3)cc2)Oc2c(NC(=O)c3ccncc3)cccc2C1=O`, the AC50 is 6.59 µM.

Regarding `O=C(C[C@H]1CC[C@@H]2[C@H](COC[C@H](O)CN2C(=O)Nc2ccc(Cl)c(Cl)c2)O1)NCc1ccc(Cl)cc1`, the AC50 was 1.88 µM.

With `O=C(C[C@@H]1CC[C@@H]2[C@H](COC[C@H](O)CN2C(=O)Nc2ccc(C(F)(F)F)cc2)O1)NC1Cc2ccccc2C1`, the AC50 is 19 µM.

Consider `C[C@@H]1CN([C@@H](C)CO)C(=O)c2cc(NC(=O)Nc3cccc4ccccc34)ccc2O[C@@H](C)CCCCO[C@H]1CN(C)CC1CCCCC1`, for which the AC50 was 32.1 µM.

For the molecule `O=C(C[C@H]1CC[C@@H]2[C@H](COC[C@@H](O)CN2C(=O)Nc2cc(Cl)cc(Cl)c2)O1)N1CCOCC1`, the AC50 is 15.3 µM.

In the case of `C[C@@H]1CCCCO[C@@H](CN(C)Cc2ccccc2)[C@H](C)CN([C@@H](C)CO)C(=O)c2cc(NC(=O)Nc3ccc(F)cc3)ccc2O1`, the AC50 was > 16 µM (inactive).

As for `O=C(C[C@@H]1CC[C@@H]2[C@H](COC[C@H](O)CN2C(=O)Nc2ccc(C(F)(F)F)cc2)O1)NCCc1ccncc1`, the AC50 is 3.46 µM.

As to `C[C@@H]1CN([C@@H](C)CO)C(=O)c2cc(NC(=O)Nc3ccc(C(F)(F)F)cc3)ccc2O[C@@H]1CN(C)CC1CCCCC1`, the AC50 is 9.84 µM.

Regarding `O=C(C[C@@H]1CC[C@H]2[C@@H](COC[C@@H](O)CN2C(=O)Nc2ccc(C(F)(F)F)cc2)O1)NCC1CC1`, the AC50 is 3.98 µM.

For the molecule `O=C(C[C@@H]1CC[C@H]2[C@@H](COC[C@@H](O)CN2C(=O)Nc2ccc(C(F)(F)F)cc2)O1)NCC1CCCCC1`, the AC50 is 3.56 µM.

For `Cc1noc(C)c1S(=O)(=O)Nc1ccc2c(c1)C(=O)N([C@@H](C)CO)C[C@H](C)[C@@H](CN(C)Cc1ccc3c(c1)OCO3)OCCCC[C@@H](C)O2`, the AC50 was 11.7 µM.

As for `O=C(C[C@@H]1C[C@H]2c3cc(NC(=O)NC4CCCC4)ccc3O[C@H]2[C@H](CO)O1)NCc1ccc2c(c1)OCO2`, the AC50 was > 60 µM (inactive).

For the molecule `C[C@@H]1CN([C@@H](C)CO)C(=O)c2cccc(NC(=O)Nc3ccc(C(F)(F)F)cc3)c2O[C@@H]1CN(C)Cc1ccc(-c2ccccc2)cc1`, the AC50 is less than 0.5 µM.

`O=C(C[C@H]1CC[C@H](NC(=O)CN2CCOCC2)[C@@H](CO)O1)NCc1cccc(F)c1`: the AC50 is > 60 µM (inactive).

On to `C[C@H]1CN([C@@H](C)CO)C(=O)c2cccc(NC(=O)Nc3ccc(C(F)(F)F)cc3)c2O[C@@H]1CN(C)C(=O)Nc1ccccc1`, for which the AC50 was 32.2 µM.

`C[C@@H]1CN([C@@H](C)CO)C(=O)c2cccc(NC(=O)Nc3ccc4c(c3)OCO4)c2O[C@@H]1CN(C)Cc1ccc(-c2ccccc2)cc1`: the AC50 is 0.665 µM.

For the molecule `O=C(NCC[C@H]1CC[C@H](NS(=O)(=O)c2ccc(F)cc2)[C@@H](CO)O1)Nc1ccc(Cl)cc1`, the AC50 was 16.7 µM.

For `O=C(C[C@@H]1CC[C@@H]2[C@H](COC[C@@H](O)CN2C(=O)Nc2ccc(Cl)c(Cl)c2)O1)NCc1ccncc1`, the AC50 is 4.07 µM.

As for `C[C@@H](NC(=O)C[C@H]1CC[C@H]2[C@@H](COC[C@H](O)CN2C(=O)Nc2cccc(Cl)c2)O1)c1ccccc1`, the AC50 is 9.84 µM.

Take `O=C(NCC[C@H]1CC[C@H](NC(=O)C2CC2)[C@@H](CO)O1)Nc1ccc(C(F)(F)F)cc1`: the concentration at half-maximal activity (AC50) was 15.6 µM.

Regarding `O=C(C[C@H]1CC[C@H]2[C@@H](COC[C@H](O)CN2S(=O)(=O)c2ccc(F)cc2)O1)NCC1CCCCC1`, the AC50 is 15.4 µM.
